Experimental findings from PubChem BioAssay AID1996 are described below.

Converted amounts (≈) assume the structure as drawn.

In general, kinetic solubility refers to solubility judged after dilution from a stock solution rather than from solid.

The conditions of this series: buffer; pH 7.4; 200.0 µM.
`Cc1cccc(N2C(=O)C3C4C=CC(C5CC45)C3C2=O)n1` (stereo not drawn) had a solubility (kinetic) of 36.5 µg/mL (≈ 130 µM).
Molecule `Cc1ccc(S(=O)(=O)N(CC2CO2)c2cccc([N+](=O)[O-])c2)cc1` (stereo not drawn) gave a solubility (kinetic) of 43.9 µg/mL (≈ 126 µM).
The molecule `O=C(/C=C\c1ccccc1)Nc1ccc(NC(=O)c2ccco2)cc1` came in with a kinetic solubility of under 0.4 µg/mL.
As for `CC(=O)Nc1cc(NC(C)=O)cc(-c2nc3ccccc3[nH]2)c1`, the figure is over 46.3 µg/mL; as for `Cc1cc(NC(=O)C(Cl)c2ccccc2)no1` (stereo not drawn), over 37.6 µg/mL.
`CCN(CC)c1ncc(C#N)c(N)n1` gave a kinetic solubility of 25.6 µg/mL (≈ 134 µM).
As for `CCCC1=C(C(=O)OCC)C(c2ccco2)C(C#N)=C(N)O1` (stereo not drawn), the figure is 30.3 µg/mL (≈ 100 µM); as for `Cc1occc1C(=O)O/N=C(\N)c1ccccc1`, 36.1 µg/mL (≈ 148 µM).
Consider `Cc1cc(=O)[nH]c(SCC(=O)NC2CCCCCCC2)n1`, for which the solubility (kinetic) is over 46.4 µg/mL.
As for `O=C(NCc1ccc(Cl)cc1)c1ccc(N2CCCC2=O)cc1`, the figure is 5.3 µg/mL (≈ 16.1 µM); as for `CCOc1ccc(OCCn2c(=S)[nH]c3c(N)ncnc32)cc1`, 20.1 µg/mL (≈ 60.7 µM); as for `O=C(O)c1cccnc1SCc1cn2cc(Cl)ccc2n1`, over 48 µg/mL.
As for `CN(C)S(=O)(=O)c1cccc(C(=O)NC2CCSc3ccccc32)c1` (stereo not drawn), the figure is 4.8 µg/mL (≈ 12.7 µM).
As for `CC(C)Cn1c(S(=O)(=O)O)nc2ccccc21`, the figure is over 38.1 µg/mL; as for `Cc1cc(C(=O)N2CCN(C(=O)c3ccco3)CC2)ccc1[N+](=O)[O-]`, 47.5 µg/mL (≈ 138 µM).
The molecule `CC(C)n1c(Oc2ccc(F)cc2)nc2c1c(=O)n(C)c(=O)n2C` displayed a solubility (kinetic) of 8.1 µg/mL (≈ 24.4 µM).
As for `O=C(Nc1nccs1)c1ccc(COc2ccccc2Cl)o1`, the figure is 0.9 µg/mL (≈ 2.69 µM).
As for `COc1ccc(CN(C)C(=O)COC(=O)c2cc([N+](=O)[O-])ccc2N2CCCC2)c(OC)c1OC`, the figure is 10.2 µg/mL (≈ 20.9 µM).
As for `O=C(CCSc1ccc(Cl)cc1)NC1CCCC1`, the figure is 32.3 µg/mL (≈ 114 µM).
`Cc1ccc(C(=O)N/C(=C/c2ccco2)C(=O)N2CCC(C)CC2)cc1` returned a solubility (kinetic) of over 52.9 µg/mL.
On to `COc1ccc(NS(=O)(=O)c2cccs2)cn1`, for which the solubility (kinetic) was over 40.5 µg/mL.
As for `S=C1NCN(Cc2ccccc2)CN1`, the figure is over 31.1 µg/mL; as for `COc1cc2ccccc2cc1C(=O)N1CCCCC1`, over 40.4 µg/mL; as for `O=C(O)c1ccc2c(=O)n(-c3ccc(F)cc3)c(=S)[nH]c2c1`, over 47.4 µg/mL.
Turning to `COc1ccccc1C(=O)Nc1cccc2nc(C)ccc12`, the kinetic solubility turned out to be 39.1 µg/mL (≈ 134 µM).
As for `O=C(COc1ccc(Br)cc1)N(CCO)CCO`, the figure is 34.5 µg/mL (≈ 108 µM); as for `O=C(Cc1cccs1)N1CCN=C1SCc1ccccc1Cl`, 6.6 µg/mL (≈ 18.8 µM).
As for `O=C(CNCc1cccc2ccccc12)Nc1ccccc1[N+](=O)[O-]`, the figure is 5.4 µg/mL (≈ 16.1 µM).
As for `COc1ccc(N2C(=O)CSC2c2ccccc2)cc1` (stereo not drawn), the figure is 42.3 µg/mL (≈ 148 µM); as for `O=C(O)CCN1C(=O)S/C(=C\c2cccnc2)C1=O`, over 41.7 µg/mL.
`CSc1ncccc1C(=O)OCC(=O)N(C)C` returned a solubility (kinetic) of over 38.1 µg/mL.
As for `CC(NCCN(C)C)C(=O)C12CC3CC(CC(C3)C1)C2.Cl` (stereo not drawn), the figure is 52.4 µg/mL; as for `O=C1CCCC2=C1C(c1cccs1)CC(=O)N2c1ccc(F)cc1` (stereo not drawn), 40.7 µg/mL (≈ 119 µM).
As for `Cc1ccc(S(=O)(=O)N2CCCC2c2cccnc2)cc1` (stereo not drawn), the figure is over 45.4 µg/mL; as for `O=C(CNC(=O)c1ccc(Br)cc1)NC1CC1`, over 44.6 µg/mL.
For `OCC1(Cc2ccccc2)CCN(Cc2ccccn2)CC1`, the kinetic solubility was over 44.5 µg/mL.
As for `COC(=O)c1sccc1NC(=O)CSCCc1ccccn1`, the figure is over 50.5 µg/mL; as for `CCCCNC(=O)N(C)c1nc2ccccc2s1`, 28.8 µg/mL (≈ 109 µM); as for `NCCc1c(Cc2ccccc2)[nH]c2ccccc12`, 34.5 µg/mL (≈ 138 µM).
Regarding `Cc1ccc(S(=O)(=O)NCCC(=O)Nc2cccc(S(=O)(=O)N3CCCC3)c2)cc1C`, the kinetic solubility is 30.5 µg/mL (≈ 65.5 µM).
As for `Cc1c2c(n3c(nc4ccccc43)c1C#N)N(CCN(C)C)CC2`, the figure is over 47.9 µg/mL.
As for `COc1ccc(CCNC(=O)c2cc3cc(F)ccc3nc2C)cc1OC`, the figure is 2.3 µg/mL (≈ 6.24 µM).
The molecule `CC1CCCC(NC(=O)COC(=O)CCC(=O)c2cccs2)C1C` (stereo not drawn) displayed a solubility (kinetic) of over 52.7 µg/mL.
For `O=C(/C=C/Nc1ccc(S(=O)(=O)Nc2ncccn2)cc1)c1ccc2ccccc2c1`, the kinetic solubility was determined as 2 µg/mL (≈ 4.65 µM).
As for `CCc1ccccc1NC(=S)N(CCc1ccncc1)C(C)C`, the figure is 44 µg/mL (≈ 134 µM); as for `COc1ccc(NC(=O)Nc2ccncc2)c(OC)c1`, over 41 µg/mL.
As for `N#Cc1ccccc1COC(=O)c1ccc2c(c1)OCCO2`, the figure is 10.9 µg/mL (≈ 36.9 µM); as for `COC(=O)c1cccc(NC(=O)CSCc2ccccc2)c1`, 35.6 µg/mL (≈ 113 µM).
As to `COc1ccc(NC(=O)c2oc3ccccc3c2CSC)cc1S(=O)(=O)N1CCOCC1`, the solubility (kinetic) came to 3.8 µg/mL (≈ 7.97 µM).
As for `Clc1cc(NC2CCCCC2)ncn1`, the figure is over 31.8 µg/mL; as for `NCCCN1CCN(c2ccccc2)CC1`, 26.3 µg/mL (≈ 120 µM); as for `O=C(CNC(=O)c1cccs1)OCc1ccc(Cl)cc1`, 41 µg/mL (≈ 132 µM).
As for `Cc1cccc(C)c1NC(=O)c1c[nH]c2ccccc12`, the figure is over 39.6 µg/mL.
As for `O=C(c1ccc(NS(=O)(=O)c2cccc(F)c2)cc1)N1CCCC1`, the figure is 51.2 µg/mL (≈ 147 µM).
With `Nc1cc(Nc2ccccc2)c2nonc2c1[N+](=O)[O-]`, the kinetic solubility came to 0.5 µg/mL (≈ 1.84 µM).
As for `CCCCNC(=O)CCC(=O)N1CCN(C(c2ccccc2)c2ccccc2)CC1.Cl`, the figure is over 66.6 µg/mL; as for `Br.CC(C)(C)c1cc(C2=CSC3=NCCN23)cc(C(C)(C)C)c1O`, 10.7 µg/mL; as for `CCOC(=O)C1CCCN(CC(=O)Nc2nccs2)C1` (stereo not drawn), over 44.6 µg/mL.
For the molecule `CCC(=O)NC(Cc1ccccc1)c1nc2ccccc2[nH]1` (stereo not drawn), the kinetic solubility is over 44 µg/mL.
As for `CN1C(=O)/C(=C/c2cc3c(cc2Br)OCO3)NC1=S`, the figure is under 0.4 µg/mL.
As for `O=C(COC(=O)C1=COCCO1)Nc1cc(Cl)c(Cl)cc1Cl`, the figure is 5.3 µg/mL (≈ 14.5 µM); as for `C=CCn1c(C(O)c2ccccc2)nc2ccccc21` (stereo not drawn), 24.2 µg/mL (≈ 91.6 µM); as for `CC(C)CN(C(=O)C1CCC1)c1c(N)n(Cc2ccccc2)c(=O)[nH]c1=O`, 36.6 µg/mL (≈ 98.8 µM).
In turn, `CN(C)/C=C/C(=O)c1ccc([N+](=O)[O-])c(CS(=O)(=O)c2ccccc2)c1` gave a solubility (kinetic) of over 56.2 µg/mL.
As for `COC(=O)c1sccc1NC(=O)NC1CCCCC1`, the figure is 23.8 µg/mL (≈ 84.3 µM).
As for `Cc1cc(NC(=O)NC(=O)c2ccccc2)no1`, the figure is 2.8 µg/mL (≈ 11.4 µM).
As for `O=C(Nc1cccnc1)c1cc2c(s1)-c1ccccc1OC2`, the figure is 0.8 µg/mL (≈ 2.59 µM); as for `CCCOc1ccc(/C=C/c2c([N+](=O)[O-])c(=O)n(C)c(=O)n2C)cc1`, under 0.2 µg/mL.
In turn, `O=C(COC(=O)CCC(=O)c1cccs1)Nc1ccccc1C(F)(F)F` registered a kinetic solubility of over 57.8 µg/mL.
As for `Cc1cc(C)c(NC(=O)CN2C(=O)NC3(CCc4ccccc43)C2=O)c(Cl)c1` (stereo not drawn), the figure is 33.1 µg/mL (≈ 83.2 µM); as for `CCC(C)c1ccc(S(=O)(=O)N2CCN3CCCC3C2)cc1` (stereo not drawn), 34.1 µg/mL (≈ 106 µM).
As for `CC(OC(=O)C1=COCCO1)C(=O)Nc1ccccc1C#N` (stereo not drawn), the figure is 38.8 µg/mL (≈ 128 µM); as for `CCOC(=O)C1CCN(Cc2ccc(Cl)nc2)CC1`, over 42.4 µg/mL; as for `Cc1cc(=O)oc2cc(NC(=O)CC3(CC(=O)O)CCCC3)ccc12`, 50.2 µg/mL (≈ 146 µM).
As for `CN(Cc1ccccc1)C1CCNCC1.Cl`, the figure is over 41.6 µg/mL.
In the case of `CCCC(C)NC(=O)c1sc2nc3n(c(=O)c2c1C)CCC3` (stereo not drawn), the kinetic solubility was over 47.9 µg/mL.
On to `NC(=S)c1ncc(C(F)(F)F)cc1Cl`, for which the kinetic solubility stood at 30.4 µg/mL (≈ 126 µM).
As for `C/C(=N\NC(=O)c1ccc(Cl)cc1)c1ccccn1`, the figure is over 41.1 µg/mL.
As for `Cc1ccc(O)c(NC(=O)c2onc(C)c2Cl)c1`, the figure is 6.2 µg/mL (≈ 23.2 µM).
As for `CCCC(=O)OC/C(O)=C(\C#N)c1nc2ccccc2[nH]1`, the figure is 32.4 µg/mL (≈ 114 µM); as for `Cc1ccc(S(=O)(=O)N2CCC[C@H]2C(=O)OCC(=O)Nc2ccc3c(c2)OCO3)cc1`, 34.3 µg/mL (≈ 76.8 µM).
For `O=C(CC(Nc1ccc(Cl)cc1Cl)C(=O)O)c1ccccc1` (stereo not drawn), the solubility (kinetic) turned out to be 50 µg/mL (≈ 148 µM).
As for `CCCc1cc(=O)[nH]c(SCC(=O)N2c3ccccc3CC2C)n1` (stereo not drawn), the figure is over 51.5 µg/mL; as for `O=[N+]([O-])c1cccc(-c2noc(COc3ccccc3)n2)c1`, 0.9 µg/mL (≈ 3.03 µM).
As for `CC(C)C[C@H](NC(=O)NCc1ccc(F)cc1)C(=O)O`, the figure is over 42.3 µg/mL.
Molecule `COc1cccc(NC(=O)c2ccc3c(c2)OCCO3)c1` returned a solubility (kinetic) of over 42.8 µg/mL.
As for `COc1ccc(C(C)NC(=O)CC23CC4CC(CC(C4)C2)C3)cc1` (stereo not drawn), the kinetic solubility is 19.7 µg/mL (≈ 60.2 µM).
As for `CCOC(=O)C1CCN(C(=O)COc2ccc(C(=O)c3ccccc3)cc2)CC1`, the figure is 36.6 µg/mL (≈ 92.6 µM); as for `CC(C)CCNC(=O)c1cc(-c2cccs2)nc2ccccc12`, under 0.3 µg/mL.
`O=[N+]([O-])c1cccc(-c2nc(-c3ccccn3)no2)c1` gave a kinetic solubility of 6.4 µg/mL (≈ 23.9 µM).
Take `Nc1cc(N)nc(SCCc2ccccc2)n1`: the solubility (kinetic) is over 36.9 µg/mL.
As for `O=C(Nc1nccs1)C1CC(=O)N(Cc2ccco2)C1` (stereo not drawn), the figure is 40.7 µg/mL (≈ 140 µM).
As for `CN(Cc1ccc(C(F)(F)F)cc1)C(=O)C1CC(=O)N(Cc2ccco2)C1` (stereo not drawn), the figure is 51.8 µg/mL (≈ 136 µM); as for `Cc1cc2oc(=O)cc(CN3CCCCC3C)c2cc1C(C)C` (stereo not drawn), 8.1 µg/mL (≈ 25.8 µM); as for `CC(=O)c1ccc(-c2ccc(C(=O)NCC(c3ccco3)N(C)C)o2)cc1` (stereo not drawn), over 55 µg/mL.
As for `O=C(Nc1ccc(Cl)cc1Cl)c1ccc(Br)o1`, the figure is under 0.7 µg/mL; as for `COC(=O)c1sccc1NC(=O)c1ccc(OC)c([N+](=O)[O-])c1`, under 0.4 µg/mL; as for `CC(=O)c1cccc(NC(=O)CC(C)n2ccnc2)c1` (stereo not drawn), over 40.7 µg/mL.
On to `CNc1ccc(Cl)nn1`, for which the solubility (kinetic) is over 21.5 µg/mL.
As for `COc1ccc(Cn2c(C(F)(F)F)ccc(C(N)=O)c2=O)cc1`, the figure is 8.2 µg/mL (≈ 25.1 µM).
As for `Cc1ccc(C)n1-c1ccc(N2CCOCC2)c([N+](=O)[O-])c1`, the figure is 29.3 µg/mL (≈ 97.2 µM); as for `COc1cc(OC)cc(C(=O)NCc2ccc3[nH]c(C)cc3c2)c1`, 3.3 µg/mL (≈ 10.2 µM); as for `O=C(Cc1ccccc1[N+](=O)[O-])N1CCOCC1`, over 37.5 µg/mL.
